{
  "source": "patent US9682087B2",
  "about": "(The Population Council, Inc., priority 2009, dated 2017)",
  "key": {"[1]": {"experiment": "Absorption of the hormones applied onto the skin", "format": "in vivo", "procedure": "These levels of these hormones applied onto the skin result in 10% absorption, and thus correspond to a daily dose of about 300 to 450 μg of the progestin and about 100 to 150 μg of the estrogen. Expressed in a different manner, it would also be possible to equate these levels of absorption of these hormones to corresponding plasma levels in the patient."}, "ovulation": {"tested_on": "ovulation", "experiment": "Ovulation blockade by NES at given serum level", "format": "in vivo", "settings": "doses leading to serum levels of 250 pmol/L"}, "[2]": {"tested_on": "androgenic, estrogenic or glucocorticoid actions", "settings": "at therapeutic levels; cited from earlier work"}, "[3]": {"settings": "oral administration; cited from earlier work"}},
  "data": [
    {"compound": "C[C@]12CC[C@@H]3c4ccc(O)cc4CC[C@H]3[C@@H]1CC[C@@H]2O", "note": "[estradiol, 17β-estradiol]", "values": [
      {"measurement": "absorption rate", "setting": "[1]; female, human, in vivo", "value": "approximately 10%"}
    ]},
    {"compound": "C=C1C[C@H]2[C@@H]3CCC4=CC(=O)CC[C@@H]4[C@H]3CC[C@]2(C)[C@@]1(OC(C)=O)C(C)=O", "note": "[NES, 16-methylene-17α-acetoxy-19-norpregn-4-ene-3,20-dione]", "values": [
      {"measurement": "absorption rate", "setting": "[1]; applied in a transdermal manner", "value": "approximately 10%"},
      {"measurement": "subjects in whom ovulation was blocked", "setting": "ovulation", "value": "more than 95%"},
      {"measurement": "androgenic, estrogenic or glucocorticoid actions", "setting": "[2]", "value": "does not carry androgenic, estrogenic or glucocorticoid actions"},
      {"measurement": "activity when administered orally", "setting": "[3]", "value": "not active"}
    ]}
  ]
}
